Assays:
Assay type in all cases: in vivo, Brassica napus
BN-02 (wild type) [1] = experiment: Plant injury after herbicide spray, Table 3; conditions: 3-4 leaf stage, 2 weeks after treatment, line BN-02
Method: (§1) B. napus plants containing the double mutant were also tested for plant injury due to imidazolinone herbicide application. B. napus plants for lines BN02 (wild type), BnCL131A1 (AHAS III A122T:S653N double mutant), BnCL120C7 (AHAS III A122T single mutant), BnCL97 (AHAS III S653N single mutant), PM1/PM2 (commercial two gene check), PM1 (AHAS I S653N single mutant) and PM2 (AHAS III W574L single mutant) were grown from seed until 3-4 leaf stage then either left unsprayed or sprayed with 35, 70 or 210 g ai/ha imazamox supplemented with 0.5% v/v Merge. Herbicide injury was evaluated 2 weeks after treatment (DAT) on 8-24 plants per line using a 0 to 9 scale where 0 is no injury and 9 is plant death. The results are presented as mean injury±one standard error of the mean in Table 3 below. The results presented cover two independent plantings and sprays for all lines except BnCL97. The table also presents values for ±one standard error of the mean.

[2] = tested on: BnCL97 (AHAS III S653N single mutant); experiment: Plant injury after herbicide spray, Table 3; conditions: 3-4 leaf stage, 2 weeks after treatment, line BnCL97
Method: as §1

[3] = tested on: BnCL131A1 (AHAS III A122T:S653N double mutant); experiment: Plant injury after herbicide spray, Table 3; conditions: 3-4 leaf stage, 2 weeks after treatment, line BnCL131A1
Method: as §1

[4] = tested on: PM1/PM2 (commercial two gene check); experiment: Plant injury after herbicide spray, Table 3; conditions: 3-4 leaf stage, 2 weeks after treatment, line PM1/PM2
Method: as §1

[5] = tested on: BnCL120C7 (AHAS III A122T single mutant); experiment: Plant injury after herbicide spray, Table 3; conditions: 3-4 leaf stage, 2 weeks after treatment, line BnCL120C7
Method: as §1

[6] = tested on: PM1 (AHAS I S653N single mutant); experiment: Plant injury after herbicide spray, Table 3; conditions: 3-4 leaf stage, 2 weeks after treatment, line PM1
Method: as §1

[7] = tested on: PM2 (AHAS III W574L single mutant); experiment: Plant injury after herbicide spray, Table 3; conditions: 3-4 leaf stage, 2 weeks after treatment, line PM2
Method: as §1

[8] = tested on: PM1/PM2 (commercial two gene check: AHAS I S653N & AHAS III W574L); experiment: Herbicide injury rating, Table 4; conditions: 3-4 leaf stage, 2 weeks post spray, line PM1/PM2
Method: (§2) Herbicide Injury Rating for Brassica napus Plants Treated with Imazamox. Plants for lines BN02 (wild type), two lines of BnCL131A1 (AHAS III A122T S653N double mutant; BnCL131A1.0 and BnCL131A1.18), PM1/PM2 (commercial two gene check: AHAS I S653N & AHAS III W574L) were grown […] Merge. Herbicide injury was evaluated 2 weeks post spray on 12 plants per line. The results are presented as mean injury±one standard error of the mean in Table 4 below. The results cover one planting and spray for all lines and the values for ±two standard error of the mean are also provided.

BN-02 (wild type) [9] = experiment: Herbicide injury rating, Table 4; conditions: 3-4 leaf stage, 2 weeks post spray, line BN-02
Method: as §2

[10] = tested on: BnCL131A1.18 (AHAS III A122T S653N double mutant); experiment: Herbicide injury rating, Table 4; conditions: 3-4 leaf stage, 2 weeks post spray, line BnCL131A1.18
Method: as §2

[11] = tested on: BnCL131A1.0 (AHAS III A122T S653N double mutant); experiment: Herbicide injury rating, Table 4; conditions: 3-4 leaf stage, 2 weeks post spray, line BnCL131A1.0
Method: as §2

SMILES: COCc1cnc(C2=NC(C)(C(C)C)C(=O)N2)c(C(=O)O)c1 (stereo not shown) [imazamox]
- Herbicide injury, mean ± one standard error of the mean, 0 to 9 scale (0 no injury, 9 plant death) (BN-02 (wild type) [1]; 35 g ai/ha + 0.5% v/v Merge): 9.00 ± 0.00
- Herbicide injury, mean ± one standard error of the mean, 0 to 9 scale (0 no injury, 9 plant death) (BN-02 (wild type) [1]; 70 g ai/ha + 0.5% v/v Merge): 9.00 ± 0.00
- Herbicide injury, mean ± one standard error of the mean, 0 to 9 scale (0 no injury, 9 plant death) (BN-02 (wild type) [1]; 210 g ai/ha + 0.5% v/v Merge): 9.00 ± 0.00
- Herbicide injury, mean ± one standard error of the mean, 0 to 9 scale (0 no injury, 9 plant death) ([2]; 35 g ai/ha + 0.5% v/v Merge): 4.08 ± 0.15
- Herbicide injury, mean ± one standard error of the mean, 0 to 9 scale (0 no injury, 9 plant death) ([2]; 70 g ai/ha + 0.5% v/v Merge): 8.58 ± 0.15
- Herbicide injury, mean ± one standard error of the mean, 0 to 9 scale (0 no injury, 9 plant death) ([2]; 210 g ai/ha + 0.5% v/v Merge): 8.00 ± 0.23
- Herbicide injury, mean ± one standard error of the mean, 0 to 9 scale (0 no injury, 9 plant death) ([3]; 35 g ai/ha + 0.5% v/v Merge): 0.76 ± 0.33
- Herbicide injury, mean ± one standard error of the mean, 0 to 9 scale (0 no injury, 9 plant death) ([3]; 70 g ai/ha + 0.5% v/v Merge): 2.53 ± 0.24
- Herbicide injury, mean ± one standard error of the mean, 0 to 9 scale (0 no injury, 9 plant death) ([3]; 210 g ai/ha + 0.5% v/v Merge): 3.22 ± 0.33
- Herbicide injury, mean ± one standard error of the mean, 0 to 9 scale (0 no injury, 9 plant death) ([4]; 35 g ai/ha + 0.5% v/v Merge): 1.21 ± 0.33
- Herbicide injury, mean ± one standard error of the mean, 0 to 9 scale (0 no injury, 9 plant death) ([4]; 70 g ai/ha + 0.5% v/v Merge): 4.13 ± 0.36
- Herbicide injury, mean ± one standard error of the mean, 0 to 9 scale (0 no injury, 9 plant death) ([4]; 210 g ai/ha + 0.5% v/v Merge): 4.93 ± 0.53
- Herbicide injury, mean ± one standard error of the mean, 0 to 9 scale (0 no injury, 9 plant death) ([5]; 35 g ai/ha + 0.5% v/v Merge): 4.19 ± 0.39
- Herbicide injury, mean ± one standard error of the mean, 0 to 9 scale (0 no injury, 9 plant death) ([5]; 70 g ai/ha + 0.5% v/v Merge): 5.43 ± 0.24
- Herbicide injury, mean ± one standard error of the mean, 0 to 9 scale (0 no injury, 9 plant death) ([5]; 210 g ai/ha + 0.5% v/v Merge): 6.65 ± 0.30
- Herbicide injury, mean ± one standard error of the mean, 0 to 9 scale (0 no injury, 9 plant death) ([6]; 35 g ai/ha + 0.5% v/v Merge): 7.22 ± 0.18
- Herbicide injury, mean ± one standard error of the mean, 0 to 9 scale (0 no injury, 9 plant death) ([6]; 70 g ai/ha + 0.5% v/v Merge): 8.61 ± 0.12
- Herbicide injury, mean ± one standard error of the mean, 0 to 9 scale (0 no injury, 9 plant death) ([6]; 210 g ai/ha + 0.5% v/v Merge): 9.00 ± 0.00
- Herbicide injury, mean ± one standard error of the mean, 0 to 9 scale (0 no injury, 9 plant death) ([7]; 35 g ai/ha + 0.5% v/v Merge): 1.81 ± 0.25
- Herbicide injury, mean ± one standard error of the mean, 0 to 9 scale (0 no injury, 9 plant death) ([7]; 70 g ai/ha + 0.5% v/v Merge): 4.14 ± 0.23
- Herbicide injury, mean ± one standard error of the mean, 0 to 9 scale (0 no injury, 9 plant death) ([7]; 210 g ai/ha + 0.5% v/v Merge): 6.17 ± 0.22
- Herbicide injury rating, mean injury ± standard error of the mean ([8]; 35 g ai/ha + 0.5% v/v Merge): 0.50 ± 0.19
- Herbicide injury rating, mean injury ± standard error of the mean ([8]; 70 g ai/ha + 0.5% v/v Merge): 1.83 ± 0.21
- Herbicide injury rating, mean injury ± standard error of the mean ([8]; 210 g ai/ha + 0.5% v/v Merge): 2.00 ± 0.23
- Herbicide injury rating, mean injury ± standard error of the mean ([8]; 420 g ai/ha): 3.83 ± 0.21
- Herbicide injury rating, mean injury ± standard error of the mean (BN-02 (wild type) [9]; 35 g ai/ha + 0.5% v/v Merge): 8.92 ± 0.08
- Herbicide injury rating, mean injury ± standard error of the mean (BN-02 (wild type) [9]; 70 g ai/ha + 0.5% v/v Merge): 9.00 ± 0.00
- Herbicide injury rating, mean injury ± standard error of the mean (BN-02 (wild type) [9]; 210 g ai/ha + 0.5% v/v Merge): 9.00 ± 0.00
- Herbicide injury rating, mean injury ± standard error of the mean (BN-02 (wild type) [9]; 420 g ai/ha): 9.00 ± 0.00
- Herbicide injury rating, mean injury ± standard error of the mean ([10]; 35 g ai/ha + 0.5% v/v Merge): 0.64 ± 0.20
- Herbicide injury rating, mean injury ± standard error of the mean ([10]; 70 g ai/ha + 0.5% v/v Merge): 0.91 ± 0.21
- Herbicide injury rating, mean injury ± standard error of the mean ([10]; 210 g ai/ha + 0.5% v/v Merge): 1.89 ± 0.20
- Herbicide injury rating, mean injury ± standard error of the mean ([10]; 420 g ai/ha): 2.27 ± 0.14
- Herbicide injury rating, mean injury ± standard error of the mean ([11]; 35 g ai/ha + 0.5% v/v Merge): 0.90 ± 0.28
- Herbicide injury rating, mean injury ± standard error of the mean ([11]; 70 g ai/ha + 0.5% v/v Merge): 1.20 ± 0.29
- Herbicide injury rating, mean injury ± standard error of the mean ([11]; 210 g ai/ha + 0.5% v/v Merge): 1.45 ± 0.28
- Herbicide injury rating, mean injury ± standard error of the mean ([11]; 420 g ai/ha): 3.20 ± 0.20
